The values that follow come from patent US10766869B2, “Triazoles for the treatment of demyelinating dieases” (Vertex Pharmaceuticals Incorporated, priority 2015, dated 2020).

The test system of the assay is primary rat mixed cortical cells. Briefly: In vitro myelination assay (MBP positive myelin strands, fold myelin pixels above background). The format is cell-based. The settings on record: for fold induction at 1 µM / fold induction at 10 µM: Rattus norvegicus. In outline: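 Compounds at 1.0 and 10.0 μM were incubated 14 days with dissociated P1 rat cortical cells, which were then fixed and immunostained for MBP. Myelination was scored as fold MBP myelin pixels per well over the no-compound baseline.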

[1] abbreviates: 1.0 μM compound, relative to baseline of no added compound, read-out: Fold myelin pixels above background.
Where [2] appears, read: 10.0 μM compound, relative to baseline of no added compound, read-out: Fold myelin pixels above background.
[3] abbreviates: 1.0 μM compound, relative to baseline of no added compound, read-out: Fold myelin pixels above background, 1.0 μM.
The mark [4] stands for this setting: 10.0 μM compound, relative to baseline of no added compound, read-out: Fold myelin pixels above background, 10.0 μM.
[5] abbreviates: 1.0 μM compound, read-out: Fold myelin pixels above background relative to baseline of no added compound.
The mark [6] stands for this setting: 10.0 μM compound, read-out: Fold myelin pixels above background relative to baseline of no added compound.

Read-outs that look alike come from different tables or passages of the source. Where only a bound is given, the exact number is not on record here.

As to `CCN1CCN(c2cc(C(F)(F)F)cc(Nc3ncn(-c4cc(F)cc(F)c4)n3)n2)CC1` [Compound 654, N-[1-(3,5-difluorophenyl)-1,2,4-triazol-3-yl]-6-(4-ethylpiperazin-1-yl)-4-(trifluoromethyl)pyridin-2-amine], under setting [1], the fold induction at 1 µM is 1 to 10. Further, under setting [2], the fold induction at 10 µM lay within 1 to 10.

As for `Cc1cc(Nc2ncn(-c3cccnc3)n2)cc(NC2CCN(C3COC3)CC2)c1` [Compound 342, 5-methyl-N1-[1-(oxetan-3-yl)-4-piperidyl]-N3-[1-(3-pyridyl)-1,2,4-triazol-3-yl]benzene-1,3-diamine], the fold induction at 1 µM under setting [3] was 1000 to 10000. Besides, under setting [4], the fold induction at 10 µM fell in the range of 10 to 100.

With `Cc1cc(Nc2ncn(-c3cc(F)cc(F)c3)n2)cc(NC2CCOC2)c1` (centres unmarked) [Compound 8, N3-[1-(3,5-difluorophenyl)-1,2,4-triazol-3-yl]-5-methyl-N1-tetrahydrofuran-3-yl-benzene-1,3-diamine], the fold induction at 1 µM under setting [3] fell in the range of 100 to 1000. For the same compound, the fold induction at 10 µM under setting [4] fell in the range of 1 to 10.

As for `c1ccc(-n2cnc(Nc3cc(N4CCOCC4)nc(N4CCOCC4)c3)n2)cc1` [Compound 319, 2,6-dimorpholino-N-(1-phenyl-1,2,4-triazol-3-yl)pyridin-4-amine], the fold induction at 1 µM under setting [3] is 1 to 10. The fold induction at 10 µM under setting [4] is no more than 1.

As for `Cc1cc(Nc2ncn(-c3ccccn3)n2)cc(N2CCN(C)CC2)c1` [Compound 138, N-[3-methyl-5-(4-methylpiperazin-1-yl)phenyl]-1-(2-pyridyl)-1,2,4-triazol-3-amine], the fold induction at 1 µM under setting [3] is 10 to 100. Also, the fold induction at 10 µM under setting [4] was 100 to 1000.

`Clc1cncc(-n2cnc(Nc3cc(C4CC4)cc(N4CCN(C5COC5)CC4)c3)n2)c1` [Compound 134, 1-(5-chloro-3-pyridyl)-N-[3-cyclopropyl-5-[4-(oxetan-3-yl)piperazin-1-yl]phenyl]-1,2,4-triazol-3-amine]: the fold induction at 1 µM under setting [3] is 100 to 1000. Besides, under setting [4], the fold induction at 10 µM was in the range of 10 to 100.

Take `Cc1cc(Nc2ncn(-c3cc(F)cc(F)c3)n2)cc(N2CCN(CCO)CC2)c1` [Compound 1036, 2-[4-[3-[[1-(3,5-difluorophenyl)-1,2,4-triazol-3-yl]amino]-5-methyl-phenyl]piperazin-1-yl]ethanol]: the fold induction at 1 µM under setting [5] is no more than 1. The fold induction at 10 µM under setting [6] was no more than 1.

On to `Fc1cc(F)cc(-n2cnc(Nc3cc(C4=CCOCC4)nc(C4CC4)c3)n2)c1` [Compound 35, 2-cyclopropyl-N-[1-(3,5-difluorophenyl)-1,2,4-triazol-3-yl]-6-(3,6-dihydro-2H-pyran-4-yl)pyridin-4-amine], for which the fold induction at 1 µM under setting [3] was 100 to 1000. Under setting [4], the fold induction at 10 µM lay within 10 to 100.

`Cc1cc(Nc2ncn(-c3cc(F)cc(F)c3)n2)cc(C2CCCN(C)C2)c1` (centres unmarked) [Compound 328, 1-(3,5-difluorophenyl)-N-[3-methyl-5-(1-methyl-3-piperidyl)phenyl]-1,2,4-triazol-3-amine]: under setting [3], the fold induction at 1 µM fell in the range of 100 to 1000. The fold induction at 10 µM under setting [4] lay in the range of 100 to 1000.

Take `CCC(O)CN1CCN(c2cc(C)cc(Nc3ncn(-c4cc(F)cc(F)c4)n3)c2)CC1` (centres unmarked) [Compound 957, 1-[4-[3-[[1-(3,5-difluorophenyl)-1,2,4-triazol-3-yl]amino]-5-methyl-phenyl]piperazin-1-yl]butan-2-ol]: the fold induction at 1 µM under setting [5] was 10 to 100. The fold induction at 10 µM under setting [6] was no more than 1.

As for `CN1CCN(c2cc(Nc3ncn(-c4ccccc4)n3)cc(Cl)n2)CC1` [Compound 367, 2-chloro-6-(4-methylpiperazin-1-yl)-N-(1-phenyl-1,2,4-triazol-3-yl)pyridin-4-amine], under setting [3], the fold induction at 1 µM is 100 to 1000. Further, the fold induction at 10 µM under setting [4] lay within 100 to 1000.

Consider `Cc1cc(Nc2ncn(-c3ccccc3)n2)cc(C2CCN(C3(C)COC3)CC2)c1` [Compound 294, N-[3-methyl-5-[1-(3-methyloxetan-3-yl)-4-piperidyl]phenyl]-1-phenyl-1,2,4-triazol-3-amine], for which, under setting [3], the fold induction at 1 µM lay in the range of 1000 to 10000. Also, the fold induction at 10 µM under setting [4] is 1000 to 10000.

On to `Fc1cc(Nc2ncn(-c3cccc(F)c3)n2)cc(N2CCOCC2)c1` [Compound 158, N-(3-fluoro-5-morpholino-phenyl)-1-(3-fluorophenyl)-1,2,4-triazol-3-amine], for which the fold induction at 1 µM under setting [3] lay within 10 to 100. Besides, the fold induction at 10 µM under setting [4] lay in the range of 100 to 1000.

Take `Fc1cc(Nc2ncn(-c3ccc(F)c(F)c3)n2)cc(N2CCN(C3COC3)CC2)c1` [Compound 803, 1-(3,4-difluorophenyl)-N-[3-fluoro-5-[4-(oxetan-3-yl)piperazin-1-yl]phenyl]-1,2,4-triazol-3-amine]: the fold induction at 1 µM under setting [5] is 10 to 100. Further, under setting [6], the fold induction at 10 µM was no more than 1.

For the compound `Cc1cc(Nc2ncn(-c3cc(F)cc(F)c3)n2)cc(N2CCNC(C(F)(F)F)C2)c1` (centres unmarked) [Compound 552, 1-(3,5-difluorophenyl)-N-[3-methyl-5-[3-(trifluoromethyl)piperazin-1-yl]phenyl]-1,2,4-triazol-3-amine], the fold induction at 1 µM under setting [1] was 10 to 100. The fold induction at 10 µM under setting [2] fell in the range of 10 to 100.

For `Cc1cc(N2CCOCC2)cc(Nc2ncn(-c3cccnc3)n2)c1F` [Compound 451, N-(2-fluoro-3-methyl-5-morpholino-phenyl)-1-(3-pyridyl)-1,2,4-triazol-3-amine], the fold induction at 1 µM under setting [1] fell in the range of 1 to 10. Under setting [2], the fold induction at 10 µM fell in the range of 100 to 1000.

Consider `Cc1cc(Nc2ncn(-c3cc(F)cc(F)c3)n2)cc(NC(C)C2CC2)c1` (centres unmarked) [Compound 1059, N1-(1-cyclopropylethyl)-N3-[1-(3,5-difluorophenyl)-1,2,4-triazol-3-yl]-5-methyl-benzene-1,3-diamine], for which the fold induction at 1 µM under setting [5] lay in the range of 10 to 100. Under setting [6], the fold induction at 10 µM is no more than 1.

For the compound `Cc1cc(Nc2ncn(-c3cc(F)cc(F)c3)n2)cc(N2CCOC3(CC3)C2)c1` [Compound 1035, 1-(3,5-difluorophenyl)-N-[3-methyl-5-(4-oxa-7-azaspiro[2.5]octan-7-yl)phenyl]-1,2,4-triazol-3-amine], the fold induction at 1 µM under setting [5] was in the range of 1 to 10. Under setting [6], the fold induction at 10 µM lay within 1 to 10.

Turning to `Cc1cc(Nc2ncn(-c3ccnc(Cl)c3)n2)cc(N2CCCC2)c1` [Compound 42, 1-(2-chloro-4-pyridyl)-N-(3-methyl-5-pyrrolidin-1-yl-phenyl)-1,2,4-triazol-3-amine], the fold induction at 1 µM under setting [3] fell in the range of 10 to 100. Also, the fold induction at 10 µM under setting [4] lay in the range of 100 to 1000.

For `Cc1cc(Nc2ncn(-c3cc(F)cc(F)c3)n2)cc([C@]2(O)CCN(C3COC3)C2)c1` [Compound 487, (3R)-3-[3-[[1-(3,5-difluorophenyl)-1,2,4-triazol-3-yl]amino]-5-methyl-phenyl]-1-(oxetan-3-yl)pyrrolidin-3-ol], the fold induction at 1 µM under setting [1] lay in the range of 100 to 1000. Besides, the fold induction at 10 µM under setting [2] lay in the range of 1 to 10.

As to `COc1cc(Nc2ncn(-c3cc(F)cc(C(F)(F)F)c3)n2)cc(N2CCN(C3COC3)CC2)c1` [Compound 754, 1-[3-fluoro-5-(trifluoromethyl)phenyl]-N-[3-methoxy-5-[4-(oxetan-3-yl)piperazin-1-yl]phenyl]-1,2,4-triazol-3-amine], under setting [1], the fold induction at 1 µM was 10 to 100. The fold induction at 10 µM under setting [2] fell in the range of 1 to 10.

For `Cc1cc(Nc2ncn(-c3ccccc3)n2)cc(Nc2nccs2)c1` [Compound 643, 5-methyl-N3-(1-phenyl-1,2,4-triazol-3-yl)-N1-thiazol-2-yl-benzene-1,3-diamine], the fold induction at 1 µM under setting [1] fell in the range of 10 to 100. Under setting [2], the fold induction at 10 µM was no more than 1.

As to `Cc1cc(Nc2ncn(-c3cncc(F)c3)n2)cc(N2CCOCC2)c1` [Compound 427, 1-(5-fluoro-3-pyridyl)-N-(3-methyl-5-morpholino-phenyl)-1,2,4-triazol-3-amine], under setting [1], the fold induction at 1 µM was 100 to 1000. Besides, the fold induction at 10 µM under setting [2] is 100 to 1000.

As for `Cc1cc(Nc2ncn(-c3ccc(F)c(F)c3)n2)cc(O[C@H]2CCN(C3COC3)C2)c1` [Compound 52, 1-(3,4-difluorophenyl)-N-[3-methyl-5-[(3S)-1-(oxetan-3-yl)pyrrolidin-3-yl]oxy-phenyl]-1,2,4-triazol-3-amine], the fold induction at 1 µM under setting [3] fell in the range of 1000 to 10000. Also, the fold induction at 10 µM under setting [4] is no more than 1.

As for `Cc1cc(Nc2ncn(-c3cc(F)cc(F)c3)n2)nc(N2CCNCC2)c1` [Compound 529, N-[1-(3,5-difluorophenyl)-1,2,4-triazol-3-yl]-4-methyl-6-piperazin-1-yl-pyridin-2-amine], the fold induction at 1 µM under setting [1] fell in the range of 1 to 10. The fold induction at 10 µM under setting [2] is no more than 1.

On to `Cc1cc(Nc2ncn(-c3ccc(C#N)cc3)n2)cc(N2CCN(C)CC2)c1` [Compound 81, 4-[3-[3-methyl-5-(4-methylpiperazin-1-yl)anilino]-1,2,4-triazol-1-yl]benzonitrile], for which the fold induction at 1 µM under setting [3] fell in the range of 1 to 10. The fold induction at 10 µM under setting [4] was no more than 1.

Take `Cc1cc(Nc2ncn(-c3cccc(C(F)(F)F)c3)n2)nc(N2CCN(C3COC3)CC2)c1` [Compound 578, 4-methyl-6-[4-(oxetan-3-yl)piperazin-1-yl]-N-[1-[3-(trifluoromethyl)phenyl]-1,2,4-triazol-3-yl]pyridin-2-amine]: under setting [1], the fold induction at 1 µM lay in the range of 1 to 10. Further, the fold induction at 10 µM under setting [2] was 10 to 100.

Consider `Cc1cc(Nc2ncn(-c3cccc(F)c3)n2)c(F)c(OC2CCOC2)c1` (single isomer, unassigned) [Compound 886, N-(2-fluoro-5-methyl-3-tetrahydrofuran-3-yloxy-phenyl)-1-(3-fluorophenyl)-1,2,4-triazol-3-amine], for which the “Fold myelin pixels above background relative to baseline of no added compound” value reads like this: (1.0 μM compound) “++ (>10 to 100x)”; (10.0 μM compound) “+ (>1 to 10x)”.
